Results published in patent US20230063457A1, “DNA-PK INHIBITING COMPOUNDS” (Provincial Health Services Authority, priority 2019, published 2023).

Tests used:
DNA-PK kinase = DNA-PK kinase (Homo sapiens, UniProt P78527); assay: Inhibition of DNA-PK kinase activity (ADP-Glo); assay type: biochemical; conditions: averaged values over all measurements on all batches; 150 μM ATP, 1 hour at 25° C.
Procedure: Inhibition of DNA-PK Kinase Activity Assay buffer was 50 mM Hepes pH 7.5 containing 0.1 mg/ml BSA (albumin from bovine serum), 50 μM DTT (dithiothreitol), 20 mM MgCl2 and 10 μg/ml calf thymus DNA (activation buffer). Kinase reaction was carried out in OptiPlate 384 plates (PerkinElmer 6007299). All compounds tested were dissolved in dimethyl sulfoxide (DMSO) and further dilutions were made in assay buffer. Final DMSO concentration was 1% (v/v). Pre-incubation consisted of compound (1% DMSO in control and blank wells) and 24 ng/well DNA-PK kinase to allow the compounds to bind the enzyme (with buffer in the blank wells) for 15 minutes; after this time 150 μM Adenosine-5′-triphosphate (ATP) and 0.2 μg/μl DNA-PK substrate were added to commence the kinase reaction. Incubations were carried out for 1 hour at 25° C. Kinase activity was determined by using ADP-Glo™ reagent from Promega according to the manufacturer's instructions. The light generated was measured using a luminometer (EnVision, PerkinElmer). Signal obtained in the wells containing blank samples was subtracted from all other wells and IC50 values were determined by fitting a sigmoidal curve to % inhibition of control versus Log10 compound concentration.

[1] = biological target: T1, Phospho-DNA-PK in FaDu Cells (Homo sapiens, UniProt P78527); assay: Effect of compounds on phospho-DNA-PK in FaDu cells (MesoScale sandwich immunoassay); assay type: cell-based; conditions: 1 hour pre-incubation, 1 μg/ml Neocarzinostatin 2 hours, averaged values, read-out: MSD FaDu IC50
T1 construct: host or cells: FaDu
Procedure: Effect of Compounds on Phospho-DNA-PK in FaDu Cells
All compounds tested were dissolved in DMSO and further dilutions were made in culture medium. Final DMSO concentration was 0.3% (v/v). The human FaDu cells (ATCC) were cultured in MEM medium supplemented with Glutamax and 10% fetal calf serum (PAA). Cells were routinely maintained at densities of 0.2×10^6 cells per ml at 37° C. in a humidified 5% CO2, 95% air atmosphere. Cells were passaged twice a week, splitting back to obtain the low density. Cells were seeded in 96 well plates (Corning 3904) at 1×10^6 cells per ml media in a volume of 50 μl per well. Seeded cells were incubated at 37° C. in a humidified 5% CO2, 95% air atmosphere for 24 hours. Compounds were added (25 μl) to the cells and pre-incubated for 1 hour. 1 μg/ml DNA-damaging agent Neocarzinostatin (NCS) was added (25 μl) to a final volume of 100 μl and incubated for 2 hours at 37° C. in a humidified 5% CO2, 95% air atmosphere. After this period of time plates were removed from the incubator and the 100 μl dilutions were removed from the wells gently, prior to the addition of 75 μl cold RIPA lysis buffer with protease and phosphatase inhibitors to achieve the cells lysis, followed by shaking on a plate shaker at 4° C. for 30 minutes. At the end of this incubation, lysate was assessed for phospho-DNA-PK levels by sandwich immune-assay carried out in anti-mouse antibody coated MesoScale plates. […] Signal obtained in the wells containing blank samples was subtracted from all other wells and IC50 values were determined by fitting a sigmoidal curve to % inhibition of control versus Logo compound concentration.

HCT116 cells = assay: Stirred cell suspension assay, release of parent inhibitor from prodrug (HCT116); assay type: cell-based, human; conditions: hypoxic conditions; 1% HCT116 cells by volume in media with 10% FBS at 37° C., FIG. 2
Procedure: Stirred Cell Suspension Assay
All compounds tested were dissolved in DMSO at 10 mM/L and further dilutions were made in culture medium. Final DMSO concentration was <0.3% (v/v). The human FaDu and HCT116 cells (ATCC) were cultured in MEM medium and 10% fetal calf serum (PAA). Cells were routinely maintained at densities of 0.2×10e6 cells per ml and incubated at 37° C. in a humidified 5% CO2, 95% air atmosphere. Cells were passaged twice a week, splitting back to obtain the low density. At the time of experiment, cells were trypsinized, counted and suspended at a density of 1% cells/volume in glass vials containing 2 ml stirred media and gassed at different pO2. After 30 minutes, test compounds were added at 25 μM/L and 150 μl samples were removed at intervals up to 4 hours. Each sample was split to test for (1) free drug and (2) total extraction and analysed using high performance liquid chromatography to measure the release of the parent inhibitor from the hypoxia activated prodrug.

Row | IC50 (DNA-PK kinase) [µM] | IC50 [1] [µM] | conversion of prodrug to the respective parent compound (HCT116 cells) | Structure (SMILES)
1 | 0.002 | 0.134 |  | Oc1cnc2cc(N3CCOCC3)nc(O[C@H]3CC[C@@H](n4cc(F)cn4)CC3)c2c1 [Example 163]
2 | 0.058 | 3.74 |  | Oc1cnc2cc(N3CCOCC3)nc(O[C@H]3CC[C@@H](c4cccs4)CC3)c2c1 [Example 164]
3 | 0.031 | 1.17 |  | Oc1cnc2cc(N3CCOCC3)nc(O[C@H]3CC[C@@H](c4ccccc4)CC3)c2c1 [Example 165]
4 | 0.004 | 0.19 |  | Cn1cc([C@H]2CC[C@@H](Oc3nc(N4CCOCC4)cc4ncc(O)cc34)CC2)cn1 [Example 166]
5 | 0.004 | 0.219 |  | Oc1cnc2cc(N3CCOCC3)nc(O[C@H]3CC[C@@H](c4cscn4)CC3)c2c1 [Example 167]
6 | 0.005 | 0.272 |  | Oc1cnc2cc(N3CCOCC3)nc(O[C@H]3CC[C@@H](c4nccs4)CC3)c2c1 [Example 168]
7 | 0.008 | 0.232 |  | COc1cnc2cc(N3CCOCC3)nc(O[C@H]3CC[C@@H](n4cc(F)cn4)CC3)c2c1 [Parent compound 170]
8 | 0.01 | 0.27 |  | CNc1cnc2cc(N3CCOCC3)nc(O[C@H]3CC[C@@H](n4ccnc4)CC3)c2c1 [Parent compound 171]

Continued, compound first:

Row | Structure (SMILES) | IC50 (DNA-PK kinase) [µM] | IC50 [1] [µM] | conversion of prodrug to the respective parent compound (HCT116 cells)
9 | CS(=O)(=O)N1CCN(c2nc(N3CCOCC3)cc3ncccc23)CC1 [Example 144] | 0.117 | 2.89 | 
10 | CNC(=O)N1CC(COc2nc(N3CCOCC3)cc3ncccc23)C1 [Example 148] | 0.171 | 4.92 | 
11 | c1cnc2cc(N3CCOCC3)nc(OC3CCN(c4ncn[nH]4)CC3)c2c1 [Example 155] | 0.134 | 7.86 | 
12 | F[C@H]1CN(c2ncn[nH]2)CC[C@@H]1Oc1nc(N2CCOCC2)cc2ncccc12 [Example 156] | 0.093 | 0.875 | 
13 | CC1CN(c2ncn[nH]2)CCC1Oc1nc(N2CCOCC2)cc2ncccc12 (centres unmarked) [Example 157] | 0.16 | 3 | 
14 | O=C1NCC(CNc2nc(N3CCOCC3)cc3ncccc23)CO1 (centres unmarked) [Parent compound 97] | 0.027 | 3.33 | 
15 | c1cnc(NCC2CN(c3nc(N4CCOCC4)cc4ncccc34)C2)nc1 [Parent compound 98] | 0.036 | 0.702 | 
16 | c1cnnc(NCC2CCN(c3nc(N4CCOCC4)cc4ncccc34)CC2)c1 [Parent compound 131] | 0.063 | 7.31 | 
17 | CN1CC(CNc2nc(N3CCOCC3)cc3ncccc23)COC1=O (centres unmarked) [Parent compound 150] | 0.066 | 1.92 | 
18 | c1cnc2cc(N3CCOCC3)nc(OCC3CN(c4ncn[nH]4)C3)c2c1 [Parent compound 151] | 0.082 | 1.69 | 
19 | c1cnc2cc(N3CCOCC3)nc(NCC3CCN(c4nnc[nH]4)CC3)c2c1 [Parent compound 152] | 0.019 | 5.79 | 
20 | c1cnc2cc(N3CCOCC3)nc(N3CCC(CNc4nnc[nH]4)CC3)c2c1 [Parent compound 153] | 0.03 | 2.49 | 
21 | c1cnc2cc(N3CCOCC3)nc(OCC3CCN(c4ncn[nH]4)CC3)c2c1 [Parent compound 154] | 0.026 | 1.07 | 
22 | C[C@H]1CN(c2ncn[nH]2)CC[C@H]1Oc1nc(N2CCOCC2)cc2ncccc12 [Parent compound 161] | 0.125 | 2.89 | 
23 | CCCCc1nc2cc(N3CCOCC3)nc(O[C@H]3CC[C@@H](n4cc(F)cn4)CC3)c2cc1O [Parent compound 175] | 0.018 | 0.464 | 
24 | CC(C)n1ncc(COc2cnc3cc(N4CCOCC4)nc(O[C@H]4CC[C@@H](n5ccnc5)CC4)c3c2)c1[N+](=O)[O-] [Prodrug 15] |  |  | released the respective parent compound
